Source: patent publication US9556417B2, “Reprogramming of cells to a new fate” (The Scripps Research Institute, priority 2010, dated 2017)

Assays:
Type in all cases: cell-based, mouse
R1 ES cells [1] = assay: Serum-free monolayer cardiac differentiation of ES cells, beating colonies; settings: for cardiac differentiation / percentage of beating colonies: early treatment window; for number of beating colonies: treatment days 5 through 7
Description: Having identified the first serum-free monolayer condition for cardiac differentiation of ES cells, we sought to test its efficacy as a platform to discover regulators of cardiomyogenesis. A collection of approximately 200 small molecules and growth factors reported to be influential in developmental processes were assembled. R1 ES cells were grown and plated for differentiation on Matrigel in 24-well plates using the media and growth factors described above. The screening collection was then added and removed from each well at specific time points in order to account for different developmental time windows. The collection was screened at days 0-2, 2-5, and 5-7.
(§1) Cells are plated at a density of 200,000 cells/well of a 6-well plate in 2.5 ml of ESGM. 6-well plates are coated overnight at 4° C. with 1 ml of Matrigel (BD Bioscience) diluted 50× from stock concentration. 24 hours after plating, or after sufficient colony size was achieved, cells are switched into chemically defined medium (CDM) and treated with 4 uM BIO (Calbiochem) and 20 ng/ml BMP-4 (R&D). CDM contains RPMI 1640, 0.5×N2, 1×B27 (without Vitamin A), 0.5× Glutamax, 0.55 mM beta-mercaptoethanol, 1× non-essential amino acids, 1× nucleosides. At Day 2, medium is changed, and again CDM containing 4 uM BIO with 20 ng/ml BMP-4 is added to the cells. At Day 5, cells are washed once with PBS and medium is changed to CDM containing 100 ng/ml Dkk-1 (R&D). At Day 7, medium is changed, and again CDM containing 100 ng/ml Dkk-1 is added to the cells. At Day 10, cells are trypsinized (0.05% trypsin) (Approximately 5 minutes at 37° C., or until cells begin to detach) and replated onto gelatin coated 6-well plates in CDM with no additional growth factors. By this time, the cells will have formed tight colonies that will be difficult to disrupt (Supplementary FIG. 2b). […] The trypsin is used primarily to detach the cells rather than to dissociate them to a single cell suspension. It is preferable for the colonies to remain intact. The trypsin is briefly quenched with MEF media, cells are centrifuged, and resuspended in CDM for plating. Medium is refreshed as needed to remove dead cells and debris (every 1 to 2 days).

R1 ES cells [2] = assay: QRT-PCR of markers in differentiating ES cells; settings: for expression of cardiac specific markers: treatment days 5-7, assessed at day 8; for expression of Brachyury T, Flk-1, GATA-4 and MESP1: treated day 0-2, harvested day 4.5
Description: To further analyze the mechanism of action of the cardiogenic effect seen with these molecules, QRT-PCR was carried out on cells treated from day 0-2 and harvested at day 4.5.
QRT-PCR was carried out to observe the induction of cardiomyogenesis at the transcript level. At day 5, when A83-01 treatment begins, the predominant state is that of a developed primitive streak type population that is yet to display robust expression of markers of cardiac precursors such as Nkx2.5, Isl-1, and c-kit.
Total RNA from each sample was prepared from 5×10^4 cells using RNeasy mini kit (Qiagen). Reverse transcription was carried out by using Reverse Transcription System (Promega) and PCR performed using PCR Super Mix (Invitrogen).

R1 mESCs = assay: Serum-free monolayer cardiac differentiation of ES cells, αMHC immunostaining at day 10; settings: for effect on cardiac specification (αMHC staining at day 10): factor given in single treatment windows
Excerpt: While cellular differentiation is a fluid process, its study can be simplified by defining stages of differentiation. In order to identify conditions conducive to cardiomyocyte differentiation, we employed a matrix strategy in which cells were differentiated for 10 days encompassing 4 treatment windows (followed by a period of maturation in the final procedure). The stages identified for the current study were mesendoderm, mesoderm, cardiac precursor, early cardiomyocyte, and mature cardiomyocyte. Shown in FIG. 24 is a schematic representing the transition from ES cells to cardiomyocytes, including markers for each cell type defined and the treatments used to stimulate each transition.
We began by identifying a minimal serum-free condition in which approximately 1% of cells would express αMHC (alpha-myosin heavy chain) after 10 days of culture. Combinations of medium components and plate coatings were tested in parallel, with the most permissive and consistent condition being a modified chemically defined N2/B27 medium on Matrigel coated plates (see Methods). Prior to differentiation, ES cells were maintained in a pluripotent state on MEFs and with LIF. At day −1, the cells were trypsinized and replated on Matrigel coated plates in LIF supplemented medium, allowing for better cell survival and more robust initial colony formation. In one day, a sufficient colony size is achieved allowing survival in serum-free medium (FIG. 25).
From a literature search, we identified growth factors, cytokines and small molecules reported to influence cardiac differentiation, such as activators and inhibitors of BMP, TGF-β/Nodal, Hedgehog, Wnt, and Notch pathways and tested each for their ability to induce cardiomyogenesis at each time window. For example, to test Dkk-1 in the second window, cells were in basal medium for days 0-2, treated with Dkk-1 for days 2-5, then cultured in basal medium until day 10 before immunofluorescence scoring. Positive regulators of cardiac specification at each stage were therefore identified by their ability to induce alpha-myosin heavy chain (αMHC) expression at day 10, as assessed by immunostaining.
as §1
Cells were fixed in 4% paraformaldehyde (Sigma) for 15 minutes, and stained in 0.3% Triton (Sigma) containing 5% donkey serum (Jackson ImunoResearch). Antibodies were used at dilutions of MF20 [Developmental Studies Hybridoma Bank (DSHB)] […]

## C[C@H]1O[C@@H](n2cnc3c(N)ncnc32)C[C@@H]1OP(=O)(OCCSC(=O)C(C)(C)C)OCCSC(=O)C(C)(C)C [2′,5′-dd-3′-AMP-bis(t-Bu-SATE)]
R1 ES cells [1]
  cardiac differentiation / percentage of beating colonies: decrease in the percentage of beating clusters

## Cc1cccc(-c2nn(C(=S)Nc3ccccc3)cc2-c2ccnc3ccccc23)n1 [A83-01, 3-(6-Methyl-2-pyridinyl)-N-phenyl-4-(4-quinolinyl)-1H-pyrazole-1-carbothioamide]
R1 ES cells [1]
  number of beating colonies: induced a higher number of beating colonies
R1 ES cells [2]
  expression of cardiac specific markers: induced higher levels of expression

## O=C1Nc2cc(Br)ccc2/C1=C1/Nc2ccccc2/C1=N\O [BIO, 6-bromoindirubin-3′-oxime]
R1 mESCs
  effect on cardiac specification (αMHC staining at day 10): increase the percentage of αMHC staining
R1 mESCs; first window (day 0-2)
  optimal dosage: 4 µM
R1 mESCs; treatment in the first window, day 10
  cells staining for αMHC: approximately 20%

## COC(=O)C1=C(C)NC(C)=C([N+](=O)[O-])C1c1ccccc1C(F)(F)F (stereo not shown) [BayK 8644]
R1 ES cells [1]
  cardiac differentiation / percentage of beating colonies: strong positive stimulator of cardiac differentiation
R1 ES cells [2]
  expression of Brachyury T, Flk-1, GATA-4 and MESP1: increased

## CCCC(=O)Nc1ncnc2c1ncn2[C@@H]1O[C@@H]2COP(=O)(O)O[C@H]2[C@H]1OC(=O)CCC [dibutyryl cAMP]
R1 ES cells [1]
  cardiac differentiation / percentage of beating colonies: increased the percentage of beating colonies
R1 ES cells [2]
  expression of Brachyury T, Flk-1, GATA-4 and MESP1: increased

B1: Wnt5a: Wnt-5A class, non-canonical Wnt signaling growth factor (protein, UniProt P41221 62-380, looked up)
Protein Wnt-5a: IIGAQPLCSQLAGLSQGQKKLCHLYQDHMQYIGEGAKTGIKECQYQFRHRRWNCSTVDNTSVFGRVMQIGSRETAFTYAVSAAGVVNAMSRACREGELSTCGCSRAARPKDLPRDWLWGGCGDNIDYGYRFAKEFVDARERERIHAKGSYESARILMNLHNNEAGRRTVYNLADVACKCHGVSGSCSLKTCWLQLADFRKVGDALKEKYDSAAAMRLNSRGKLVQVNSRFNSPTTQDLVYIDPSPDYCVRNESTGSLGTQGRLCNKTSEGMDGCELMCCGRGYDQFKTVQTERCHCKFHWCCYVKCKKCTEIVDQFVCK
R1 ES cells [1]; same stage as BayK 8644
  decrease in overall beating efficiency: 20%

B2: Dkk-1: Wnt inhibitor Dkk-1 (Dickkopf protein 1) (protein, UniProt O94907 32-266, looked up)
Dickkopf-related protein 1: TLNSVLNSNAIKNLPPPLGGAAGHPGSAVSAAPGILYPGGNKYQTIDNYQPYPCAEDEECGTDEYCASPTRGGDAGVQICLACRKRRKRCMRHAMCCPGNYCKNGICVSSDQNHFRGEIEETITESFGNDHSTLDGYSRRTTLSSKMYHTKGQEGSVCLRSSDCASGLCCARHFWSKICKPVLKEGQVCTKHRRKGSHGLEIFQRCYCGEGLSCRIQKDHHQASNSSRLHTCQRH
R1 ES cells [1]; BMP-4 + BIO then Dkk-1, replated on gelatin, basal medium, after 6 days of culture
  colonies developing a beating phenotype: ~50%
R1 mESCs; after BMP-4 and BIO for 5 days, treated in third or fourth window
  increase in efficiency of cardiac differentiation: 20%

B3: Activin A: a TGFβ/Activin/Nodal family member growth factor (protein, UniProt P08476 311-426, looked up)
Inhibin beta A chain: GLECDGKVNICCKKQFFVSFKDIGWNDWIIAPSGYHANYCEGECPSHIAGTSGSSLSFHSTVINHYRMRGHSPFANLKSCCVPTKLRPMSMLYYDDGQNIIKKDIQNMIVEECGCS
modifications: Inhibin beta A chain
R1 ES cells [1]
  number of beating colonies: lower number of beating colonies
R1 mESCs
  effect on cardiac specification (αMHC staining at day 10): negative effects
R1 ES cells [2]
  expression of cardiac specific markers: opposite effect
